This passage reports logP results from the SangsterLogP compilation.

The term logP denotes a log measure of how a compound divides between an organic and an aqueous phase. Read a low logP as a more hydrophilic compound.

This data set is described as follows: method code SF, from DOI: 10.1515/bc.2003.056, PMID: 12715901.
`CCC1(C(=O)OC(C)C)CCC=[N+]1[O-]` (stereo unspecified): the log partition coefficient (logP) is -0.18. As for `CCC(C)OC(=O)C1(CC)CCC=[N+]1[O-]` (stereo unspecified), the logP was 0.28. The result for `CC(C)OC(=O)C1(C)CCC=[N+]1[O-]` (stereo unspecified) reads -0.7. Regarding `CCCOC(=O)C1(CC)CCC=[N+]1[O-]` (stereo unspecified), the logP is -0.11. `CCCC1(C(=O)OC(C)C)CCC=[N+]1[O-]` (stereo unspecified): the logP was found to be 0.29. Take `CCCCOC(=O)C1(CC)CCC=[N+]1[O-]` (stereo unspecified): the logP is 0.46. The logP values of the last two compounds are within 0.2 log units of each other. To `CCCC1(C(=O)OC(C)(C)C)CCC=[N+]1[O-]` (stereo unspecified) belongs 0.43; to `CCCCOC(=O)C1(CCC)CCC=[N+]1[O-]` (stereo unspecified), 0.89; to `CCOC(=O)C1(CC)CCC=[N+]1[O-]` (stereo unspecified), -0.6. For `CCC1(C(=O)OC(C)(C)C)CCC=[N+]1[O-]` (stereo unspecified), the logP is 0.18. To `CCCOC(=O)C1(CCC)CCC=[N+]1[O-]` (stereo unspecified) belongs 0.42.
